Test system: DNA crosslinks in mouse bone marrow cells
Test: Detection of SJG-136-click in mouse bone marrow by confocal microscopy (click labelling of DNA crosslinks)
Format: in vivo
Details: mice treated 0.3 mg/kg, 45 minutes; for click-647 (Alexa Fluor 647 azide) signal observed by confocal imaging: sites of reticulation (DNA crosslinks): 10 μm bone marrow sections of femur/tibia, click-it solution with Alexa Fluor 647 azide, FIG. 1 middle column
Description: FIG. 1 represents confocal microscopy observations of samples of mice bone marrow in mouse femur tissues treated with 0.3 mg·kg^−1 of either SJG136 (top line of images) (corresponding to a compound outside of the invention) or SJG136-click (bottom line of images) (corresponding to the compound of formula (IV) according to the invention). The nucleus of the sample's cells are identified on the left column by DAPI staining. The middle column represents images obtained by exposing clickable 647 fluorophore (Alexa Fluor™ 647 azide, sold by the company Thermo Fisher) to the samples treated with SJG136 or SJG136-click to detect the SJG136 or SJG136-click. On the right column, observations from the left and middle column are merged. Some of the observable DNA crosslinking are indicated by white arrows in the middle and right cases of the bottom line.
Mice were treated with a compound of formula (IV) according to the invention (0,3 mg/kg) during 45 minutes.
The bone(s) (i.e. femur and tibia) were dissected from the mouse and surrounding muscle(s) were removed. Said bone(s) were immediately fixed with 4% ice-cold PFA solution for 24 hours at 4° C. in a 15 mL conical tube. The bone sample(s) were then washed three times with PBS. Each wash was carried out for 5 minutes at 4° C. with 7 mL of PBS under constant agitation.
A DCAL solution, containing 0.5 M of EDTA, was prepared by dissolving 186.1 g of EDTA in 800 mL of ddH2O with the addition of about 20 g of NaOH pellets to bring the mixture to a pH in the range of 7.4-7.6 by continuous stirring. The volume is adjusted to 1 L and the solution is filtered on a 0.5 μm filter.
A cryoprotectant (CPT) solution (1×) was also prepared by dissolving 200 g of sucrose and 20 g of polyvinylpyrrolidone (PVP) in 700 mL of PBS under constant stirring by a magnetic stirrer. The volume was then adjusted to 1 L and the solution was mixed until a homogeneous solution was obtained. […]

C#CCC(COc1cc2c(cc1OC)C(=O)N1CC(=C)CC1C=N2)COc1cc2c(cc1OC)C(=O)N1CC(=C)CC1C=N2 (stereo not drawn) [SJG136-click, 8,8′-((2-(prop-2-yn-1-yl)propane-1,3-diyl)bis(oxy))bis(7-methoxy-2-methylene-2,3-dihydro-1H-benzo[e]pyrrolo[1,2-a][1,4]diazepin-5(11aH)-one)]
click-647 (Alexa Fluor 647 azide) signal observed by confocal imaging: sites of reticulation (DNA crosslinks): several light spots, clearly distinct one from the others
localisation of click-647 light spots relative to DAPI-stained nuclei (merged image) (bone marrow sections, merge of DAPI and click-647 images, FIG. 1 right column): all the light spots observed are within the nucleus of cells

C=C1C[C@H]2C=Nc3cc(OCCCOc4cc5c(cc4OC)C(=O)N4CC(=C)C[C@H]4C=N5)c(OC)cc3C(=O)N2C1 [SJG136, reference compound]
click-647 (Alexa Fluor 647 azide) signal observed by confocal imaging: sites of reticulation (DNA crosslinks): nothing is visible

Reference: patent publication US20240124938A1, “VISUAL DETECTION OF PBD INDUCED DNA CROSSLINKS” (INSERM (INSTITUT NATIONAL DE LA SANTÉ ET DE LA RECHERCHE …, priority 2019, published 2024)
